According to patent publication US20100152219A1, “PYRAZOLE DERIVATIVES AS INHIBITORS OF RECEPTOR TYROSINE KINASES” (ASTRAZENECA R&D, priority 2003, published 2010):

molecular target: T1, human TrkB kinase (Homo sapiens, UniProt Q16620); assay: TrkB Assay Format (HTRF kinase assay); type: biochemical; details: Trk inhibitory activity in the in-vitro TrkB HTRF assay
T1 construct: The intracellular domain of a HIS-tagged human TrkB kinase; His tag; made in house; host or cells: Sf9 insect cells
Method: TrkB kinase activity is being measured against its ability to phosphorylate synthetic tyrosine residues within a generic polypeptide substrate using homogenous time-resolved fluorescence (HTRF) technology. The intracellular domain of a HIS-tagged human TrkB kinase was expressed in SF9 cells and purified using standard nickel column chromatography. After the kinase is incubated with a biotinylated substrate and adenosine triphosphate (ATP) for 50 minutes at room temperature, the kinase reaction is stopped by the addition of 60 mM ethylenediaminetetraacetic acid (EDTA). The reaction is performed in 384 well microtitre plates and reaction products are detected with the addition of strepavidin-linked and phosphotyrosine-specific antibodies using the Tecan Ultra Evolution Microplate Fluometer after an additional 3-hour incubation at room temperature.

T1 sequence (Q16620 455-822 limits assumed): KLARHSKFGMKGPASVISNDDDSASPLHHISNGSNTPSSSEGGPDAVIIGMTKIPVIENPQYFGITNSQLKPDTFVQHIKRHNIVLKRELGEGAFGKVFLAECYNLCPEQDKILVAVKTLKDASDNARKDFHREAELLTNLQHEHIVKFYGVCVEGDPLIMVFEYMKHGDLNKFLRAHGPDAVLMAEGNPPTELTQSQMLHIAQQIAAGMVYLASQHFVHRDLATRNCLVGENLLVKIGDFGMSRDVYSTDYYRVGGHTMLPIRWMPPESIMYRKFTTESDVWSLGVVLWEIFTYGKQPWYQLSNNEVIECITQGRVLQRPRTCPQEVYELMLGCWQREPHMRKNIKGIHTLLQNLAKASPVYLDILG

| IC50 | SMILES |
| --- | --- |
| 0.067 µM | C[C@H](Nc1nccc(Nc2cc(C3CC3)n[nH]2)n1)c1ccc(F)cc1 [Example 42, N^4-(3-Cyclopropyl-1H-pyrazol-5-yl)-N^2-[(1S)-1-(4-fluorophenyl)ethyl]pyrimidine-2,4-diamine] |
| 0.059 µM | OCC[C@H](Nc1nc(Nc2cc(C3CC3)[nH]n2)c2sccc2n1)c1ccc(F)cc1 [Example 64, (3S)-3-({4-[(5-Cyclopropyl-1H-pyrazol-3-yl)amino]thieno[3,2-d]pyrimidin-2-yl}amino)-3-(4-fluorophenyl)propan-1-ol] |
| 0.087 µM | COc1ccc2nc(N[C@@H](CO)c3ccc(F)cc3)nc(Nc3cc(C4CC4)[nH]n3)c2c1 [Example 80, (2R)-2-({4-[(5-Cyclopropyl-1H-pyrazol-3-yl)amino]-6-methoxyquinazolin-2-yl}amino)-2-(4-fluorophenyl)ethanol] |
